Measurements published in patent US20030158120A1, “Combination product comprising melagatran and a factor xa inhibitor” (AstrZeneca AB, priority 2000, published 2003).
pIC50: −log10 of the molar value.

What was measured:
human plasma = test: Prothrombin time clotting assay; assay type: biochemical
Experimental: Human blood from healthy volunteers, both men and women, was collected in 50 mL conical plastic tubes containing 5 mL of 0.13 mol/L of buffered tri-sodium citrate. The blood was immediately chilled on ice and centrifuged at 2000×g for 20 minutes.
100 μL of human plasma was pre-warmed to 37° C. for 180 seconds before coagulation was initiated by the addition of 200 μL pre-warmed assay reagent (Thromboplastin-S, ISI 1.1, Biopool Umea, Sweden). The prothrombin time (PT) was determined on a mechanical coagulometer, coupled to a CR-A calculator, CR 10 printer and a PR60 heat block (KC 10A Amelung, Germany). Each clotting test was performed in duplicate.
In order to determine the relative potency of each inhibitor and a 50:50 mixture thereof, the concentration required to double the prothrombin time (IC50) was determined as follows: The ratio of prothrombin time in control plasma (PT0) to the prothrombin time in the presence of different inhibitor concentrations (PTinhibitor) were plotted against the inhibitor concentration (log transformed) and fitted to sigmoidal dose-response curves from which IC50 values were calculated according to the equation:
where y=(PTO)/(PT) with a range from 1 to 0; a=maximal range i.e. 1, when PTmela is equal to PT0; s=the slope of the dose-response curve, x=log concentration of inhibitor, IC50=the concentration of melagatran that doubles the prothrombin time. The calculations were processed on a PC using the software program GraFit® Erithacus Version 3.0 (Robin Leatherbarrow, Imperial Collage of Science, Technology & Medicine, London).

| Compound | pIC50 (human plasma; from sigmoidal dose-response curves of PT0/PTinhibitor, human plasma, total concentration for the mixture, read-out: IC50 (concentration required to double the prothrombin time)) | Prothrombin time (human plasma; plasma conc. 0.23 μmol/L) [s] | Prothrombin time (human plasma; plasma conc. 0.47 μmol/L) [s] | Prothrombin time (human plasma; plasma conc. 0.70 μmol/L) [s] | Prothrombin time (human plasma; plasma conc. 0.93 μmol/L) [s] | Prothrombin time (human plasma; plasma conc. 1.17 μmol/L) [s] | Prothrombin time (human plasma; plasma conc. 1.40 μmol/L) [s] | Prothrombin time (human plasma; plasma conc. 1.63 μmol/L) [s] | Prothrombin time (human plasma; plasma conc. 1.86 μmol/L) [s] | Prothrombin time (human plasma; plasma conc. 2.10 μmol/L) [s] | PT (human plasma; single inhibitor at 2.33 μmol/L in human platelet poor plasma) [s] | melting point [°C] |
| --- | --- | --- | --- | --- | --- | --- | --- | --- | --- | --- | --- | --- |
| N=C(N)c1ccc(CNC(=O)[C@@H]2CCN2C(=O)[C@H](NCC(=O)O)C2CCCCC2)cc1 [melagatran, HOOC—CH2—(R)Cgl-Aze-Pab-H] | 6.13 | 18.1 | 21.8 | 25.4 | 32.6 | 43.2 | 53.8 | 65.3 | 76.3 | 87.2 | 95.2 | – |
| O=C(c1ccc(-c2cc[n+]([O-])cc2)cc1)N1CCN(S(=O)(=O)c2cc3cc(Cl)ccc3[nH]2)CC1 [Example 1, 4-{4-[4(5-Chloroindol-2-ylsulfonyl)piperazine-1-carbonyl]phenyl}-pyridine-1-oxide] | – | – | – | – | – | – | – | – | – | – | – | 265 to 267 |
